Laboratory results as given in PMC10541198, “Specific quinone reductase 2 inhibitors reduce metabolic burden and reverse Alzheimer’s disease phenotype in mice” (The Journal of Clinical Investigation, 2023).
pIC50: −log10 of the molar value.

Key:
QR2 = target: T1, QR2 (Homo sapiens, UniProt P16083); experiment: QR2 activity assay, BNAH fluorescence (standard/primary); format: biochemical; conditions: Figure 2D; readout not stated
T1 construct: purchased Sigma-Aldrich
T1 sequence (P16083 1-231): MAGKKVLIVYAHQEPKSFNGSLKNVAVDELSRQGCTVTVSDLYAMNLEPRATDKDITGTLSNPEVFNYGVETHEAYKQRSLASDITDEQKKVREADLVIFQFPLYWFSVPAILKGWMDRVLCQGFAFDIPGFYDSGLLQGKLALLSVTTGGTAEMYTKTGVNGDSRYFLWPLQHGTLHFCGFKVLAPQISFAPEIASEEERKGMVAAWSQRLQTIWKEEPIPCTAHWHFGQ
From the text: (§1) A drug discovery campaign strategy was initiated to screen compounds for QR2-specific, cell-free inhibition and in vitro activity, followed by SAR optimization (Figure 2A) to achieve highly specific and potent QR2 inhibitor synthesis. In order to establish a varied and chemically amenable starting point, we developed a high-throughput QR2 assay (Supplemental Methods) that we screened against a library with approximately 200,000 compounds. […] Compounds that replicated the initial hit result were then assayed similarly against QR1 to evaluate compound specificity (Figure 2B). From the HTS, a chemically tractable and attractive series of compounds containing a sulfone flanked by an amine and a heterocycle were identified and selected for SAR development (Figure 2C, Supplemental Methods, Supplemental Table 1, and Supplemental Table 2). […]
High Throughput Screen (H TS)
The enzymatic activity of QR 2 (10 nM) was measur ed using menadione (both Sigm a -Aldrich) as subst r at e and dihydro- benzylnicotinamide (BNAH; Tocris) as co-substrate(62). The reaction was performed in 50 mM Tri s HCl, 150 mM NaCl 0.01%Tween- 20 pH=8.5 (Sigma-Aldrich) at r oom tem per atur e. Briefl y, 3 µL of menadione alone (200 µM) or a mixture of menadione and QR2 (200 µM of […]
(§2) menadione and 10 nM of QR2) were dispensed in 1536-well black Nunc plates (Thermo-Fisher) using aMultidrop™ Combi Reagent Dispenser (Thermo-Fisher) and pre-incubated with compounds for 10min. BNAH (200µM) was t hen added (3 µL) to the reaction using a BioNex Solutions BNX1536plate washer and the plates were incubated for another 10 min. Fluorescence intensity was followed in a PHERAstar FS multi-mode plate reader (BMG Labtech) us i ng an optic module with excitation at 360 nm and emission at 470 nm. The initial HTS includedapproximately 200,000 compounds at a single concentrationof 5 µM. The chemical libraries used were Selleck Chemicals Bioactives, the Drug-like set from Enamine, HitFinder collection from Maybridge, Spectrum Collection from Microsource, Lopa c from Sigma -Aldrich and the diversity set s from Chem Div and Che m Br idge .
Initial ‘‘hit’’ compounds were defined as causing >30% reduction of enzyme activity. Compounds suspected to be fluorescent were re -assayed in an absorbance assay at 350 nm using the same reaction but in a higher volume (100 µL), in a transparent plate (Greiner Bio- One). ‘‘Hit’’ compounds resulting from both the fluorescence and absorbance assay wer e t ested in a concentration- response, and IC50 values were de t er mi ne d. In parallel, the same concentration response methodologywas appliedin a selectivity assay where QR2 enzymewas replaced byQR1 […]
Chromatography System, with UV/Vis detector 2489, using XBridge® Prep C18 10 μm 10x250 mm […]
was monitored by Wat er s UPLC-MS system: Acquity UPLC® H class with PDA detector, and using […]

[1] = Solubility in water / saline; format: physicochemical
QR1 = target: T2, QR1 (Homo sapiens, UniProt P15559); experiment: QR1 selectivity assay, fluorescence; format: biochemical; conditions: Figure 2D; readout not stated
T2 construct: purchased Sigma-Aldrich
From the text: as §1, §2
Initial ‘‘hit’’ compounds were defined as causing >30% reduction of enzyme activity. Compounds suspected to be fluorescent were re -assayed in an absorbance assay at 350 nm using the same reaction but in a higher volume (100 µL), in a transparent plate (Greiner Bio- One). ‘‘Hit’’ compounds resulting from both the fluorescence and absorbance assay wer e t ested in a concentration- response, and IC50 values were de t er mi ne d. In parallel, the same

T2 sequence (P15559 whole entry): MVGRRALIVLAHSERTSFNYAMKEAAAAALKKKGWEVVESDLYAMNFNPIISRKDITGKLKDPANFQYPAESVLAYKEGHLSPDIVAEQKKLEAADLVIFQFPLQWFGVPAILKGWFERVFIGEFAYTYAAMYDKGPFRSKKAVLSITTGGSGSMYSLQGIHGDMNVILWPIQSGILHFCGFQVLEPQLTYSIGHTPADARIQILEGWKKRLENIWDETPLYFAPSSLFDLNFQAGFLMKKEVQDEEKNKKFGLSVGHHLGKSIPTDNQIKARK

SMILES | pIC50 (QR2) | solubility in water [1] | pIC50 (QR1)
Cc1nc(-c2ccc(C)c(S(=O)(=O)N3CCC(C)CC3)c2)cs1 [YB-104] | 5.13 | – | –
Cc1ccn2cc(-c3ccc(C)c(S(=O)(=O)NCc4cccnc4)c3)nc2c1 [YB-812] | 5.16 | – | < 5.00
Cc1ccn2cc(-c3ccc(C)c(S(=O)(=O)Nc4ccc(Cl)cc4)c3)nc2c1 [YB-816] | < 5.00 | – | < 5.00
Cc1ccc(-c2nnc(-c3ccccc3)o2)cc1S(=O)(=O)NCCCN1CCCC1=O [YB-818] | < 5.00 | – | < 5.00

The remaining lines, values ahead:

pIC50 (QR2) | solubility in water [1] | pIC50 (QR1) | SMILES
6.68 | water soluble | – | Cc1ccc(-c2cn3cccc(C)c3n2)cc1S(=O)(=O)N1CCN(C)CC1 [YB-540]
5.24 | – | < 5.00 | Cc1ccc(-c2nnc(-c3ccccc3)o2)cc1S(=O)(=O)N1CCN(C(=O)c2ccco2)CC1 [YB-789]
8.10 | – | 5.48 | Cc1ccc(-c2cn3cccc(C)c3n2)cc1S(=O)(=O)N1CCN(C(=O)c2ccco2)CC1 [YB-792]
